Columns and labels:
[1] = test system: TOP-FLASH reporter in PANC-1 cells; assay: TOP-FLASH reporter in PANC-1 PDAC cells; format: cell-based; settings: KRAS-independent PANC-1 cells
Description: (§1) (E) TOP-FLASH reporter activity in KRAS mutant PDAC cell lines following inhibition of GSK-3 kinase with increasing concentrations of the small molecule inhibitor BIO. PANC-1 are KRAS-independent cells and YAPC are KRAS-dependent cells. Luminescence counts (photons/sec) are plotted on the y-axis. Data are representative of three independent experiments+/−SEM.
(§2) (F) TOP-FLASH reporter dose-response relationships in PANC-1 and YAPC cells following combined treatment with GSK-3 and TAK1 inhibitors (BIO and 5Z-7-Oxozeaenok respectively). Luminescence counts (photons/sec) are plotted on the y-axis. Data are represented as the means of triplicates+/−SEM.
(§3) To further test the role of Wnt signaling in this context, experiments were performed using two KRAS mutant pancreatic cancer (PDAC) cell lines, PANC-1 and YAPC, which are APC wild-type. PANC-1 cells are KRAS-independent, whereas YAPC cells are KRAS-dependent, a distinction that has been linked to increased KRAS signaling in YAPC cells (Singh et al., 2009). […] In contrast, PANC-1 cells undergo stronger induction of TOP-FLASH activity with combined GSK-3 and TAK1 inhibition (FIG. 11F, […]). […] Finally, a constitutively-activated mutant of β-catenin (CTNNB1-CA) containing S33Y and S45A missense mutations was introduced into KRAS-dependent SW620 cells. This mutant caused partial losses in both KRAS and TAK1 dependencies (FIGS. 13A-C). […]

[2] = test system: TOP-FLASH reporter in YAPC cells; assay: TOP-FLASH reporter in YAPC PDAC cells; format: cell-based; settings: KRAS-dependent YAPC cells
Description: as §1, §2, §3

For O=C1Nc2cc(Br)ccc2/C1=C1/Nc2ccccc2/C1=N\O [BIO], the TOP-FLASH reporter induction [1] was “weak induction” and the TOP-FLASH reporter induction [2] was “strong, dose-dependent TOP-FLASH reporter induction”.

Reference: patent US20140243403A1, “TREATING COLORECTAL, PANCREATIC, AND LUNG CANCER” (The General Hospital Corporation, priority 2011, published 2014)
